Test results: US7902238B2, “2-aminooxazolines as TAAR1 ligands” (Hoffmann-La Roche Inc., priority 2007, dated 2011)

Experiments:
mouse TAAR1 = mouse TAAR1 (Mus musculus, UniProt Q923Y8); assay: Radioligand binding on membranes of HEK293 cells stably expressing mouse TAAR1
rat TAAR1 = rat TAAR1 (Rattus norvegicus, UniProt Q923Y9); assay: Radioligand binding on membranes of HEK293 cells stably expressing rat TAAR1
Sequence of rat TAAR1 (Q923Y9 whole entry): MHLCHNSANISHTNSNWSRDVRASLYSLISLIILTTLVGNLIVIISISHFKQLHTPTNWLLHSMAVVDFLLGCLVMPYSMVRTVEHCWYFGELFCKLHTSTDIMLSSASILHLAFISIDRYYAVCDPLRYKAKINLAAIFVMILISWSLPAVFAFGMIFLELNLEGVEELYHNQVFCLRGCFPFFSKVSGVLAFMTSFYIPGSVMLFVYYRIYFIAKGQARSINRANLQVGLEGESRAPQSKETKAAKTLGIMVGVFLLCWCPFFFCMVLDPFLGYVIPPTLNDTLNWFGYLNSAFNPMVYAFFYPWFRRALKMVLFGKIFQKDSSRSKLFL

Sequence of mouse TAAR1 (Q923Y8 whole entry): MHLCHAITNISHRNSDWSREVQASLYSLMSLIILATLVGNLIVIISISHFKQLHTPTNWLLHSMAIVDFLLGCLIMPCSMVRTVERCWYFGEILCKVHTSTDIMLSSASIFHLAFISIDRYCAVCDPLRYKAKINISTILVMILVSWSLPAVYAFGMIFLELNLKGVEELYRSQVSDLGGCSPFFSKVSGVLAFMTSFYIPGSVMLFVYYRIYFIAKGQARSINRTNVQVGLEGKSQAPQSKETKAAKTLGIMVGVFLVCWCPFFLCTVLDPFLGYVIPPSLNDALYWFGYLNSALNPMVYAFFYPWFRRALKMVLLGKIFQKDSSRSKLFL

| Structure (SMILES) | Ki (mouse TAAR1) | Ki (rat TAAR1) |
| --- | --- | --- |
| CCN(C[C@@H]1COC(N)=N1)c1ccccc1 [Example 1, (R)-4-[(Ethyl-phenyl-amino)-methyl]-4,5-dihydro-oxazol-2-ylamine] | 0.9 nM | 1.9 nM |
| CCN(C[C@H]1COC(N)=N1)c1ccccc1 [Example 3, (S)-4-[(Ethyl-phenyl-amino)-methyl]-4,5-dihydro-oxazol-2-ylamine] | 1 nM | 1 nM |
| CN(C[C@H]1COC(N)=N1)c1ccc(Cl)c(Cl)c1 [Example 7, (S)-4-{[(3,4-Dichloro-phenyl)-methyl-amino]-methyl}-4,5-dihydro-oxazol-2-ylamine] | 1.4 nM | 0.3 nM |
| CCN(C[C@H]1COC(N)=N1)c1ccc(Cl)cc1 [Example 11, (S)-4-{[(4-Chloro-phenyl)-ethyl-amino]-methyl}-4,5-dihydro-oxazol-2-ylamine] | 3.5 nM | 0.9 nM |
| CC(C)N(C[C@H]1COC(N)=N1)c1ccc(Cl)c(Cl)c1 [Example 15, (S)-4-{[(3,4-Dichloro-phenyl)-isopropyl-amino]-methyl}-4,5-dihydro-oxazol-2-ylamine] | 22.4 nM | 0.8 nM |
| COc1cc(N(C)C[C@H]2COC(N)=N2)ccc1Cl [Example 27, (S)-4-{[(4-Chloro-3-methoxy-phenyl)-methyl-amino]-methyl}-4,5-dihydro-oxazol-2-ylamine] | 7.3 nM | 1.6 nM |
| CCN(C[C@H]1COC(N)=N1)c1ccc(Cl)c(OC)c1 [Example 28, (S)-4-{[(4-Chloro-3-methoxy-phenyl)-ethyl-amino]-methyl}-4,5-dihydro-oxazol-2-ylamine] | 2.3 nM | 0.6 nM |
| CN(C[C@H]1COC(N)=N1)c1ccccc1 [Example 30, (S)-4-[(Methyl-phenyl-amino)-methyl]-4,5-dihydro-oxazol-2-ylamine] | 16.3 nM | 1.7 nM |
| CN(C[C@H]1COC(N)=N1)c1ccc(Br)cc1 [Example 31, (S)-4-{[(4-Bromo-phenyl)-methyl-amino]-methyl}-4,5-dihydro-oxazol-2-ylamine] | 1.3 nM | 1.9 nM |
| CCN(C[C@H]1COC(N)=N1)c1ccc(Br)cc1 [Example 32, (S)-4-{[(4-Bromo-phenyl)-ethyl-amino]-methyl}-4,5-dihydro-oxazol-2-ylamine] | 2.8 nM | 0.6 nM |
| CCN(C[C@H]1COC(N)=N1)c1ccc(Cl)c(Cl)c1 [Example 33, (S)-4-{[(3,4-Dichloro-phenyl)-ethyl-amino]-methyl}-4,5-dihydro-oxazol-2-ylamine] | 2.2 nM | 0.2 nM |
| CN(C[C@H]1COC(N)=N1)c1cccc(Br)c1 [Example 34, (S)-4-{[(3-Bromo-phenyl)-methyl-amino]-methyl}-4,5-dihydro-oxazol-2-ylamine] | 1.2 nM | 4.7 nM |
| CCN(C[C@H]1COC(N)=N1)c1cccc(Br)c1 [Example 37, (S)-4-{[(3-Bromo-phenyl)-ethyl-amino]-methyl}-4,5-dihydro-oxazol-2-ylamine] | 9.7 nM | 1.8 nM |
| COc1cc(N(C)C[C@H]2COC(N)=N2)ccc1F [Example 40, (S)-4-{[(4-Fluoro-3-methoxy-phenyl)-methyl-amino]-methyl}-4,5-dihydro-oxazol-2-ylamine] | 1.1 nM | 2 nM |
| COc1cc(N(Cc2ccccc2)C[C@H]2COC(N)=N2)ccc1F [Example 42, (S)-4-{[Benzyl-(4-fluoro-3-methoxy-phenyl)-amino]-methyl}-4,5-dihydro-oxazol-2-ylamine] | 26.4 nM | 1.1 nM |
| NC1=N[C@@H](CN(Cc2ccccc2)c2ccc(F)cc2)CO1 [Example 53, (S)-4-{[Benzyl-(4-fluoro-phenyl)-amino]-methyl}-4,5-dihydro-oxazol-2-ylamine] | 18.7 nM | 0.9 nM |
| NC1=N[C@@H](CN(Cc2ccccc2)c2ccc(Cl)cc2)CO1 [Example 55, (S)-4-[{Benzyl-(4-chloro-phenyl)-amino]-methyl}-4,5-dihydro-oxazol-2-ylamine] | 28.8 nM | 0.6 nM |
| CCN(C[C@H]1COC(N)=N1)c1cccc(C)c1 [Example 65, (S)-4-[(Ethyl-m-tolyl-amino)-methyl]-4,5-dihydro-oxazol-2-ylamine] | 1.9 nM | 2.7 nM |
| CN(C[C@H]1COC(N)=N1)c1ccc2ccccc2c1 [Example 77, (S)-4-[(Methyl-naphthalen-2-yl-amino)-methyl]-4,5-dihydro-oxazol-2-ylamine] | 0.4 nM | – |
| CCN(C[C@H]1COC(N)=N1)c1cccc(Cl)c1 [Example 83, (S)-4-{[(3-Chloro-phenyl)-ethyl-amino]-methyl}-4,5-dihydro-oxazol-2-ylamine] | – | 1 nM |
| NC1=N[C@@H](CNc2cccc(Cl)c2)CO1 [Example 87, (S)-4-[(3-Chloro-phenylamino)-methyl]-4,5-dihydro-oxazol-2-ylamine] | – | 7.3 nM |
| CCc1cccc(N(CC)C[C@H]2COC(N)=N2)c1 [Example 92, (S)-4-{[Ethyl-(3-ethyl-phenyl)-amino]-methyl}-4,5-dihydro-oxazol-2-ylamine] | – | 37000 nM |

| Structure (SMILES) | Ki (mouse TAAR1) | Ki (rat TAAR1) |
| --- | --- | --- |
| CCc1ccc(N(CC)C[C@H]2COC(N)=N2)cc1 [Example 94, (S)-4-{[Ethyl-(4-ethyl-phenyl)-amino]-methyl}-4,5-dihydro-oxazol-2-ylamine] | – | 51000 nM |
| CCN(C[C@H]1COC(N)=N1)c1ccc(Cl)cc1F [Example 95, (S)-4-{[(4-Chloro-2-fluoro-phenyl)-ethyl-amino]-methyl}-4,5-dihydro-oxazol-2-ylamine] | – | 1.5 nM |
| CCN(C[C@H]1COC(N)=N1)c1ccc2c(c1)CCC2 [Example 99, (S)-4-[(Ethyl-indan-5-yl-amino)-methyl]-4,5-dihydro-oxazol-2-ylamine] | 6 nM | 3.2 nM |
| CN(C[C@H]1COC(N)=N1)c1ccc(Cl)cc1F [Example 100, (S)-4-{[(4-Chloro-2-fluoro-phenyl)-methyl-amino]-methyl}-4,5-dihydro-oxazol-2-ylamine] | 2.7 nM | 3 nM |
| CN(C[C@H]1COC(N)=N1)c1cccc(-c2cnco2)c1 [Example 105, (S)-4-{[Methyl-(3-oxazol-5-yl-phenyl)-amino]-methyl}-4,5-dihydro-oxazol-2-ylamine] | 3.8 nM | 63.5 nM |
| CCN(C[C@H]1COC(N)=N1)c1cccc(-c2cnco2)c1 [Example 106, (S)-4-{[Ethyl-(3-oxazol-5-yl-phenyl)-amino]-methyl}-4,5-dihydro-oxazol-2-ylamine] | 4.1 nM | 18.8 nM |
| CCN(C[C@H]1COC(N)=N1)c1ccccc1F [Example 107, (S)-4-{[Ethyl-(2-fluoro-phenyl)-amino]-methyl}-4,5-dihydro-oxazol-2-ylamine] | 3.9 nM | 14.9 nM |
| CCN(C[C@H]1COC(N)=N1)c1cc(F)cc(C(F)(F)F)c1 [Example 109, (S)-4-{[Ethyl-(3-fluoro-5-trifluoromethyl-phenyl)-amino]-methyl}-4,5-dihydro-oxazol-2-ylamine] | 2.5 nM | 1.7 nM |
| CCN(C[C@H]1COC(N)=N1)c1ccccc1Cl [Example 111, (S)-4-{[(2-Chloro-phenyl)-ethyl-amino]-methyl}-4,5-dihydro-oxazol-2-ylamine] | 6 nM | 58.7 nM |
| Cc1ccc(N(C)C[C@H]2COC(N)=N2)c(F)c1 [Example 113, (S)-4-{[(2-Fluoro-4-methyl-phenyl)-methyl-amino]-methyl}-4,5-dihydro-oxazol-2-ylamine] | 2.8 nM | 6.2 nM |
| Cc1ccc(NC[C@H]2COC(N)=N2)c(F)c1 [Example 117, (S)-4-[(2-Fluoro-4-methyl-phenylamino)-methyl]-4,5-dihydro-oxazol-2-ylamine] | 2.8 nM | 18.2 nM |
| NC1=N[C@@H](CNc2ccccc2Cl)CO1 [Example 119, (S)-4-[(2-Chloro-phenylamino)-methyl]-4,5-dihydro-oxazol-2-ylamine] | 1.1 nM | 4.2 nM |
| CN(C[C@@H]1COC(N)=N1)c1ccc(Cl)cc1 [Example 125, (R)-4-{[(4-Chloro-phenyl)-methyl-amino]-methyl}-4,5-dihydro-oxazol-2-ylamine] | 2.3 nM | 5.6 nM |
| CCN(C[C@@H]1COC(N)=N1)c1ccc(Cl)cc1 [Example 126, (R)-4-{[(4-Chloro-phenyl)-ethyl-amino]-methyl}-4,5-dihydro-oxazol-2-ylamine] | 1.6 nM | 1.2 nM |
| NC1=N[C@@H](CNc2ccc(C(F)(F)F)c(F)c2)CO1 [Example 127, (S)-4-[(3-Fluoro-4-trifluoromethyl-phenylamino)-methyl]-4,5-dihydro-oxazol-2-ylamine] | 4.6 nM | 15.7 nM |
| CN(C[C@@H]1COC(N)=N1)c1ccc(F)cc1 [Example 128, (R)-4-{[(4-Fluoro-phenyl)-methyl-amino]-methyl}-4,5-dihydro-oxazol-2-ylamine] | 4.7 nM | 11.6 nM |
| CC(C)N(C[C@@H]1COC(N)=N1)c1ccc(Cl)cc1 [Example 129, (R)-4-{[(4-Chloro-phenyl)-isopropyl-amino]-methyl}-4,5-dihydro-oxazol-2-ylamine] | 8.8 nM | 2.7 nM |
| NC1=N[C@@H](CNc2ccc(C(F)(F)F)cc2)CO1 [Example 132, (S)-4-[(4-Trifluoromethyl-phenylamino)-methyl]-4,5-dihydro-oxazol-2-ylamine] | 4.7 nM | 24.8 nM |
| CCN(C[C@H]1COC(N)=N1)c1ccc(C(F)(F)F)cc1 [Example 133, (S)-4-{[Ethyl-(4-trifluoromethyl-phenyl)-amino]-methyl}-4,5-dihydro-oxazol-2-ylamine] | 4.2 nM | 4.9 nM |
| CN(C[C@H]1COC(N)=N1)c1ccc(C(F)(F)F)cc1 [Example 134, (S)-4-{[Methyl-(4-trifluoromethyl-phenyl)-amino]-methyl}-4,5-dihydro-oxazol-2-ylamine] | 5.7 nM | 3.6 nM |
| NC1=N[C@@H](CNc2cccc(Cl)n2)CO1 [Example 135, ((S)-2-Amino-4,5-dihydro-oxazol-4-ylmethyl)-(6-chloro-pyridin-2-yl)-amine] | 8.7 nM | 48.9 nM |
